{
  "source": "patent US20190127705A1",
  "about": "“METHOD FOR CULTURING MULTIPLE OVARIAN FOLLICLES BY USING ANGIOTENSIN II RECEPTOR AGONIST” (SEOUL NATIONAL UNIVERSITY R&DB FOUNDATION, priority 2016, published 2019)",
  "format_in_all_cases": "cell-based, mouse",
  "key": {"[1]": {"tested_on": "single pre-antral follicle", "experiment": "in vitro culturing of a single pre-antral follicle (growth, ovulation and maturation after ovulation induction)", "conditions": "for ovulation rate / growth of the follicle: single-follicle culturing, 10 ug/mL from day 5; for ovulation rate: 16 to 18 hours after ovulation induction, versus untreated single-follicle, FIG. 2; for growth of the follicle: fifth day compared with 13th day, versus untreated control (CTL), FIG. 1", "excerpt": "(§1) Specifically, an ovary was separated from a 14-day old mouse and placed in HBSS (Hank's balanced salt solution) containing 10% bovine serum. Then, pre-antral follicles in an early developmental stage were mechanically separated using a 28-gauge syringe needle. At this time, degenerated pre-antral follicles were removed, and healthy pre-antral follicles were used for a pre-antral follicle culturing. One separated pre-antral follicle was used for a single-follicle culturing, and a cluster including two to four pre-antral follicles joined together was used for culturing a cluster of multiple follicles.\n(§2) After 25 20 μl culture liquid droplets were made on each culture dish (Falcon 3000, BD Biosciences, 60×15 mm), the collected single pre-antral follicle, or the cluster of multiple follicles consisting of 2 to 4 joined pre-antral follicles were seeded to each droplet. Then, those follicles were cultured in a 5% CO2 incubator at 37° C. for about 2 weeks. The culture liquid used here is Opti-MEM medium (Invitrogen) including insulin, 5% bovine serum, recombinant follicle stimulating hormone (FSH, Gonal-F®, Merck Serono, 0.2 IU/mL) and recombinant luteinizing hormone (LH, Luveris®, Merck Serono, 0.1 IU/mL). The culture liquid was changed in half with new medium every two days. In culturing process, a follicle morphology was observed using an inverted microscope (TE-2000; Nikon).\n(§3) In order to observe a follicle culturing effect based on a regulation of the angiotensin II receptor, the single pre-antral follicle and the cluster of multiple follicles were compared and analyzed by divided into 3 groups: control group, angiotensin II receptor agonist (CGP-42112, Sigma)-treated group, and angiotensin II receptor antagonist (Saralasin, Sigma)-treated group. Specifically, the single pre-antral follicle and the cluster of multiple follicles were treated with the angiotensin II receptor agonist or the angiotensin II receptor antagonist to have a concentration of 10 ug/mL from day 5 of culturing.\n(§4) On the 12th day of the culturing, it was observed that the pre-antral follicle was matured into an antral follicle. Then, the antral follicle was treated with recombinant human […], rhCG, Ovidrel®, Merck Serono) of 1.5 IU/m and human epidermal growth factor (hEGF) of 5 ng/mL in order to induce ovulation. At 16 to 18 hours after the ovulation induction, ovulation rate and maturation rate were calculated.\n(§5) Specifically, the ovulation rate was calculated by counting the number of follicles ovulated after administration of the human […] and the human epidermal growth factor among the seeded follicles, and the maturation rate was calculated by counting the number of ova in MII phase among the ovulated ova.\nIn order to investigate effect of angiotensin II in culturing a single-follicle, growth and maturation rates based on the treatment with angiotensin II receptor agonist or angiotensin II receptor antagonist were intended to be investigated. […] Further, ovulation rates were investigated by inducing ovulation in the cultured follicles."}, "[2]": {"tested_on": "cluster of multiple follicles", "experiment": "in vitro culturing of a cluster of multiple follicles (growth, follicle fluid, maturation rate)", "conditions": "for growth of the cluster of multiple follicles: cluster of two to four joined follicles, fifth day compared with 13th day", "excerpt": "as §1, §2, §3, §4\nas §5, with “ova. […]” for “ova.”"}, "[3]": {"tested_on": "multiple follicles cultured collectively", "experiment": "culturing multiple follicles collectively (growth, follicle fluid)", "conditions": "multiple follicles collectively treated with agonist; bottom of FIG. 8", "excerpt": "as §1, with “follicles. […]” for “follicles.”\nIn order to observe a follicle culturing effect based on a regulation of the angiotensin II receptor, the single pre-antral follicle and the cluster of multiple follicles were compared and analyzed by divided into 3 groups: control group, angiotensin II receptor agonist (CGP-42112, Sigma)-treated group, and angiotensin II receptor antagonist (Saralasin, Sigma)-treated group. […]\nOn the 12th day of the culturing, it was observed that the pre-antral follicle was matured into an antral follicle. […] At 16 to 18 hours after the ovulation induction, ovulation rate and maturation rate were calculated. […]"}, "[4]": {"tested_on": "mature follicle ovulated from cultured follicles", "experiment": "in vitro fertilization of ova from cultured follicles and embryo observation", "experimental": "In vitro fertilization was performed to evaluate fertilization rates of the ova obtained by the induction of ovulation. Specifically, a mature follicle ovulated in HTF (human tubal fluid) medium in the 5% CO2 incubator at 37° C. was fertilized with a sperm collected from a 8 week old male C57BL6 mouse. When cell division occur or two pronuclei are seen and a second polar body is observed, the ovum is regarded as fertilized.\nIn order to further confirm the effect of the angiotensin II in culturing the cluster of multiple follicles, maturation rate and fertilization rate were intended to be checked. Mature follicles were ovulated by treating them with the angiotensin II receptor agonist and inducing the ovulation via the method of Example 1 to Example 5. Then, the ovulated mature follicles were fertilized with sperms."}, "[5]": {"conditions": "10 ug/mL from day 5, FIG. 3, FIG. 8 top"}},
  "note": "Entries after “also recorded” stand apart in the source; their conditions may differ.",
  "data": [
    {"compound": "CNCC(=O)N[C@@H](CCCN=C(N)N)C(=O)N[C@H](C(=O)N[C@@H](Cc1ccc(O)cc1)C(=O)N[C@H](C(=O)N[C@@H](Cc1cnc[nH]1)C(=O)N1CCC[C@H]1C(=O)N[C@@H](C)C(=O)O)C(C)C)C(C)C", "note": "[angiotensin II receptor antagonist, Saralasin]", "values": [
      {"measurement": "ovulation rate", "setting": "[1]", "value": "not significantly different"},
      {"measurement": "growth of the follicle", "setting": "[1]", "value": "growing at a level similar to a single-follicle (control group, CTL) that had not been treated"},
      {"measurement": "growth of the cluster of multiple follicles", "setting": "[2]; [5]", "value": "did not grow simultaneously but fell into apoptosis during development"}
    ]},
    {"compound": "CGP-42112 [angiotensin II receptor agonist]", "values": [
      {"measurement": "maturation rate", "setting": "[1]; single-follicle culturing with agonist treatment, ova in MII phase among ovulated ova, FIG. 5", "value": 11, "unit": "%"},
      {"measurement": "ovulation rate", "setting": "[1]", "value": "not significantly different"},
      {"measurement": "growth of the follicle", "setting": "[1]", "value": "growing at a level similar to a single-follicle (control group, CTL) that had not been treated"},
      {"measurement": "follicle fluid accumulation in the follicles", "setting": "[3]", "value": "almost no follicle fluid accumulation"},
      {"measurement": "growth of the follicles", "setting": "[3]", "value": "all follicles promoted to grow but fell into apoptosis during development"},
      {"measurement": "accumulation of the follicle fluid in the follicle", "setting": "[2]; cluster of multiple follicles, 10 ug/mL from day 5, FIG. 3, FIG. 8 top", "value": "increased; also recorded: clearly observed in the all follicles"},
      {"measurement": "growth of the cluster of multiple follicles", "setting": "[2]; [5]", "value": "growth of all follicles was significantly promoted; also recorded: significantly promoted to grow"},
      {"measurement": "maturation rate", "setting": "[2]; culturing of the cluster of multiple follicles with agonist treatment, ova in MII phase among ovulated ova, FIG. 5", "value": 26.8, "unit": "%"},
      {"measurement": "cleavage of an embryo", "setting": "[4]; after fertilizing matured follicles from agonist-treated cultures, FIG. 7", "value": "progression of cleavage of an embryo was observed"},
      {"measurement": "fertilization rates", "setting": "[4]; single-follicle culturing compared with culturing of the cluster of multiple follicles, agonist treated, FIG. 6", "value": "no significant difference"}
    ]}
  ]
}
